Source: US20260092061A1, “COMPOUNDS FOR TARGETED PROTEIN DEGRADATION” (Amphista Therapeutics Limited, priority 2022, published 2026)

Tests used:
Type in all cases: cell-based
BRD4 [1] = target: T1, BRD4 (Homo sapiens, UniProt O60885); assay: BRD4 degradation, HiBiT-BRD4 HEK293 CRISPR CPM cells, NanoGlo Lytic Endpoint assay (Assay Protocol 1); settings: for Dmax: HEK293, Table 5; for DC50: Table 5
T1 construct: HiBiT-BRD4 HEK293 CRISPR CPM (Promega CS302312); host or cells: HEK293, CRISPR-edited (HiBiT at the BRD4 locus)
Description: (§1) HiBiT-BRD9 KI HEK293 (LgBiT) Cells (Promega CS3023412) were seeded at 8000 cells per well (38 μL) in sterile white bottom 384 well plates (Invitrogen 164610 or Greiner 781080) and incubated overnight at 37° C. with 5% CO2. The next day, compounds were prepared at 1000× final concentration in DMSO and diluted 1:100 in media (DMEM PAN Biotech P04-03550+10% FBS ATCC 302025). 4 μL compound was added to each well of the cell plate and incubated for 6 h at 37° C. with 5% CO2 BRD9 expression was quantified using the NanoGlo Lytic Endpoint assay (Promega N3050). The lytic buffer was equilibrated to room temperature for 10-15 min before lytic reagent was prepared by adding substrate (1:50) and LgBit protein (1:100) in lytic buffer. 40 μL lytic reagent mix was added to each well of the cel plate and plates were centrifuged briefly at ˜50g. Plates were incubated with shaking (350 RPM) for 12-24 min before reading using the LUM plus module of a BMG Pherastar FSX. Data was analysed using Dotmatics software and % BRD9 remaining was calculated by normalisation to average data from high and low control wells (DMSO treated cels and no cells respectively).
(§2) […] was determined in line with the procedure as outlined above for BRD9, HiBiT-BRD4 HEK293 CRISPR CPM (Promega CS302312) were seeded at 8000 CPW (36 uL) in sterile white bottom 384 well plates (Invitrogen 164610 or Greiner 781080) and incubated overnight at 37° C. with 5% CO2.

BRD7 = target: T2, BRD7 (Homo sapiens, UniProt Q9NPI1); assay: BRD7 degradation, HiBiT-BRD7 KI HEK293 (LgBiT) cells, NanoGlo Lytic Endpoint assay (Assay Protocol 1); settings: for Dmax / Dmax at 1 µM: HEK293; for Dmax / DC50: Table 5, assay protocol 1; for Dmax at 1 µM: Table 3, assay 1, 1 μM compound at 5 h of treatment
T2 construct: HiBiT-BRD7 KI HEK293 (LgBiT) Cells (Promega CS3023410); host or cells: HEK293 (LgBiT), HiBiT knock-in at the BRD7 locus
T2 sequence (Q9NPI1 1-651): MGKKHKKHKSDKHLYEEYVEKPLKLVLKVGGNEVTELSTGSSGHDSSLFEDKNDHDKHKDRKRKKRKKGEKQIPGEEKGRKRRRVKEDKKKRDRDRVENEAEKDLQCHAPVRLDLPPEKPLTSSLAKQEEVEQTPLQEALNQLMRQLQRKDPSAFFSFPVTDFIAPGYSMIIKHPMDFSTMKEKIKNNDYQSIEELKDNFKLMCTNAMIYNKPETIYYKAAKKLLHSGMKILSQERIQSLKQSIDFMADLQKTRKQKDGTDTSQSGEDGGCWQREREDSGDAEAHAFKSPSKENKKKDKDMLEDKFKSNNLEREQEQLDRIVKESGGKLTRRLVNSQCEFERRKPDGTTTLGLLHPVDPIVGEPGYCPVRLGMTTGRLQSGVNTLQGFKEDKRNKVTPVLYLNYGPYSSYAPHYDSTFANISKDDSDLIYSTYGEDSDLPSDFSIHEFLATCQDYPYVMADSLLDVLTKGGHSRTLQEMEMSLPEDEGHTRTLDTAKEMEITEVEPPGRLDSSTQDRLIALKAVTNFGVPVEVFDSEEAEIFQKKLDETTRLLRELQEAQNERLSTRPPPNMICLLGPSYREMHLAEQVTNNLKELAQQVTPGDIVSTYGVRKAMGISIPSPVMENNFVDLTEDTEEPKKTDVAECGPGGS
Description: as §1, with “4 μL compound was added to each well of the cell plate and incubated for 6 h at 37° C. with 5% CO2 BRD9 expression was quantified using the NanoGlo Lytic Endpoint assay (Promega N3050).” left out
as §2, with “with the exception that HiBiT-BRD7 KI” for “HiBiT-BRD4”, “(LgBiT) Cells” for “CRISPR CPM”, “CS3023410)” for “CS302312)”, “cells per well (CPW)” for “CPW”

BRD9 = target: T3, BRD9 (Homo sapiens, UniProt Q9H8M2); assay: BRD9 degradation, HiBiT-BRD9 KI HEK293 (LgBiT) cells, NanoGlo Lytic Endpoint assay (Assay Protocol 1); settings: Table 3; assay 1; 5 h of treatment
T3 sequence (Q9H8M2 1-597): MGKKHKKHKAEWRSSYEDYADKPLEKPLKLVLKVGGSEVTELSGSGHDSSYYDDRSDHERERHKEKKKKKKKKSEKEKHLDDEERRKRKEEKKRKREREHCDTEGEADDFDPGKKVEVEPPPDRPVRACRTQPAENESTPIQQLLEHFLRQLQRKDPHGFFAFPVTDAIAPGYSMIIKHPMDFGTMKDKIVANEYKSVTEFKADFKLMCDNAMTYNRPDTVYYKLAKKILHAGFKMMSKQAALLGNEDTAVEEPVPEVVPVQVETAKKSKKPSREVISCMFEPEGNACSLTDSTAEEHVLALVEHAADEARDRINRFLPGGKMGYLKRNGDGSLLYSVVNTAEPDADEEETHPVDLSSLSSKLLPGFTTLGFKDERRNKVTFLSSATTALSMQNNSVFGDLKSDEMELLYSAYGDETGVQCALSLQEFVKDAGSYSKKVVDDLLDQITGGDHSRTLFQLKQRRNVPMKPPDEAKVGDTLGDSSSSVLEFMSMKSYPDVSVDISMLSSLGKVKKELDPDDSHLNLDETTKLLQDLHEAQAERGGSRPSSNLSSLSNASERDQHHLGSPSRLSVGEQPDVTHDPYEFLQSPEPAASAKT

BRD4 [2] = target: T1, BRD4; assay: BRD4 degradation, HiBiT-BRD4 HEK293 CRISPR CPM cells, NanoGlo Lytic Endpoint assay (Assay Protocol 1); settings: HEK293; Table 3; assay 1; 1 μM compound at 5 h of treatment

| SMILES | Dmax (BRD4 [1]) | DC50 (BRD4 [1]) | Dmax (BRD7) | DC50 (BRD7) | DC50 (BRD9) | Dmax (BRD4 [2]) | Dmax at 1 µM (BRD7) |
| --- | --- | --- | --- | --- | --- | --- | --- |
| COc1cc(-c2cn(C)c(=O)c(C)c2C)cc(OC)c1CN1CC2CC1CN2C(=O)/C(C#N)=C/C(C)(C)C (mixture of isomers) [BRD9b] | > 75% | 25 to 1000 nM | < 25% | > 1000 nM |  |  |  |
| COc1cc(-c2cn(C)c(=O)c(C)c2C)cc(OC)c1CN1CC2CC1CN2C(=O)/C(C#N)=C/c1nccs1 (mixture of isomers) [BRD9i, (E/Z)-2-(5-(2,6-dimethoxy-4-(1,4,5-trimethyl-6-oxo-1,6-dihydropyridin-3-yl)benzyl)-2,5-diazabicyclo[2.2.1]heptane-2-carbonyl)-3-(thiazol-2-yl)acrylonitrile] | 40 to 70% | > 1000 nM | 25 to 40% | > 1000 nM |  |  |  |
| COc1cc(-c2cn(C)c(=O)c(C)c2C)cc(OC)c1CN1C2CC1CN(C(=O)/C(C#N)=C/c1cccc(Br)n1)C2 (mixture of isomers) [BRD9o, (E/Z)-3-(6-bromopyridin-2-yl)-2-(6-(2,6-dimethoxy-4-(1,4,5-trimethyl-6-oxo-1,6-dihydropyridin-3-yl)benzyl)-3,6-diazabicyclo[3.1.1]heptane-3-carbonyl)acrylonitrile] | 25 to 40% | > 1000 nM | 25 to 40% | > 1000 nM |  |  |  |
| COc1cc(-c2cn(C)c(=O)c(C)c2C)cc(OC)c1CN1CCN(Cc2cccc3c2CCN(C(=O)/C(C#N)=C/c2nccs2)C3C)CC1 (mixture of isomers) [Compound A4, (E/Z)-2-(5-((4-(2,6-dimethoxy-4-(1,4,5-trimethyl-6-oxo-1,6-dihydropyridin-3-yl)benzyl)piperazin-1-yl)methyl)-1-methyl-1,2,3,4-tetrahydroisoquinoline-2-carbonyl)-3-(thiazol-2-yl)acrylonitrile] |  |  |  |  | < 1.25 nM | < 25% | < 25% |
| COc1cc(-c2cn(C)c(=O)c3cnccc23)cc(OC)c1CN1CCN(Cc2cccc3c2CCN(C(=O)/C(C#N)=C\c2ncc(C)s2)C3C)CC1 (mixture of isomers) [Compound A10, (E/Z)-2-(5-((4-(2,6-dimethoxy-4-(2-methyl-1-oxo-1,2-dihydro-2,7-naphthyridin-4-yl)benzyl)piperazin-1-yl)methyl)-1-methyl-1,2,3,4-tetrahydroisoquinoline-2-carbonyl)-3-(5-methylthiazol-2-yl)acrylonitrile] |  |  |  |  | < 1.25 nM | < 25% | 25 to 40% |
| COc1cc(-c2cn(C)c(=O)c(C)c2C)cc(OC)c1CN1CCN(Cc2cccc3c2CCN(C(=O)/C(C#N)=C/c2cccc(Br)n2)C3C)CC1 (mixture of isomers) [Compound A16, (E/Z)-3-(6-bromopyridin-2-yl)-2-(5-((4-(2,6-dimethoxy-4-(1,4,5-trimethyl-6-oxo-1,6-dihydropyridin-3-yl)benzyl)piperazin-1-yl)methyl)-1-methyl-1,2,3,4-tetrahydroisoquinoline-2-carbonyl) acrylonitrile] |  |  |  |  | 1.25 to 10 nM | < 25% | 25 to 40% |
| COc1cc(-c2cn(C)c(=O)c(C)c2C)cc(OC)c1CN1CCN(C(=O)/C(C#N)=C/C(C)(C)C)CC1 [BRD9a, (E/Z)-2-(4-(2,6-dimethoxy-4-(1,4,5-trimethyl-6-oxo-1,6-dihydropyridin-3-yl)benzyl)piperazine-1-carbonyl)-4,4-dimethylpent-2-enenitrile] | > 75% | 25 to 1000 nM | < 25% | > 1000 nM |  |  |  |
| COc1cc(-c2cn(C)c(=O)c(C)c2C)cc(OC)c1CN(C)C(=O)/C(C#N)=C/C(C)(C)C [BRD9ac, (E/Z)-2-cyano-N-(2,6-dimethoxy-4-(1,4,5-trimethyl-6-oxo-1,6-dihydropyridin-3-yl)benzyl)-N,4,4-trimethylpent-2-enamide] | 25 to 40% | > 1000 nM | 70 to 75% | 25 to 1000 nM |  |  |  |
| COc1cc(-c2cn(C)c(=O)c(C)c2C)cc(OC)c1CN1CCCN(C(=O)/C(C#N)=C/C(C)(C)C)CC1 [BRD9c, (E/Z)-2-(4-(2,6-dimethoxy-4-(1,4,5-trimethyl-6-oxo-1,6-dihydropyridin-3-yl)benzyl)-1,4-diazepane-1-carbonyl)-4,4-dimethylpent-2-enenitrile] | > 75% | 25 to 1000 nM | < 25% | > 1000 nM |  |  |  |
| COc1cc(-c2cn(C)c(=O)c(C)c2C)cc(OC)c1CN(C)C1CCN(C(=O)/C(C#N)=C/C(C)(C)C)CC1 [BRD9d, (E/Z)-2-(4-((2,6-dimethoxy-4-(1,4,5-trimethyl-6-oxo-1,6-dihydropyridin-3-yl)benzyl)(methyl)amino)piperidine-1-carbonyl)-4,4-dimethylpent-2-enenitrile] | < 25% | > 1000 nM | < 25% | > 1000 nM |  |  |  |
| COc1cc(-c2cn(C)c(=O)c(C)c2C)cc(OC)c1CN1CCN(C(=O)/C(C#N)=C/C(C)(C)C)C2(CC2)C1 [BRD9e, (E/Z)-2-(7-(2,6-dimethoxy-4-(1,4,5-trimethyl-6-oxo-1,6-dihydropyridin-3-yl)benzyl)-4,7-diazaspiro[2,5]octane-4-carbonyl)-4,4-dimethylpent-2-enenitrile] | > 75% | 25 to 1000 nM | < 25% | > 1000 nM |  |  |  |
| COc1cc(-c2cn(C)c(=O)c(C)c2C)cc(OC)c1CN1CCN(C(=O)/C(C#N)=C/c2cccc(Br)n2)CC1 [BRD9h, (E/Z)-3-(6-bromopyridin-2-yl)-2-(4-(2,6-dimethoxy-4-(1,4,5-trimethyl-6-oxo-1,6-dihydropyridin-3-yl)benzyl)piperazine-1-carbonyl)acrylonitrile] | 40 to 70% | 25 to 1000 nM | 25 to 40% | > 1000 nM |  |  |  |
